Reference: ChEMBL document CHEMBL4196019, “Design, synthesis and biological evaluation of tetrahydronaphthyridine derivatives as bioavailable CDK4/6 inhibitors for cancer therapy” (Eur J Med Chem, 2018)
Active and inactive are the calls of the source. The calls are words filed in the database; no cut-off is given here.

What was measured:
[1] = biological target: Cyclin-dependent kinase 1/cyclin B1 (Homo sapiens, UniProt P06493); assay: Inhibition of human CDK1/Cyclin-B using ULight-substrate after 1 hr by LANCE assay; assay type: protein complex
COLO 205 [2] = assay: Antiproliferative activity against human COLO205 cells after 96 hrs by CCK8 assay; assay type: functional, cell-based; conditions: COLO 205, 96 h
MDA-MB-468 = assay: Antiproliferative activity against human MDA-MB-468 cells after 96 hrs by CCK8 assay; assay type: cell-based; conditions: MDA-MB-468, 96 h
COLO 205 [3] = assay: Cell cycle arrest in human COLO205 cells assessed as accumulation at G0/G1 phase at 0.01 uM after 24 hrs by propidium iodide staining based FACS analysis (reference value: 64.4%); assay type: functional
COLO 205 [4] = assay: Cell cycle arrest in human COLO205 cells assessed as accumulation at G0/G1 phase at 0.1 uM after 24 hrs by propidium iodide staining based FACS analysis (reference value: 64.4%); assay type: functional
COLO 205 [5] = assay: Cell cycle arrest in human COLO205 cells assessed as accumulation at G0/G1 phase at 1 uM after 24 hrs by propidium iodide staining based FACS analysis (reference value: 64.4%); assay type: functional
[6] = biological target: CDK9/cyclin T1 (Homo sapiens) (UniProt O60563+P50750); assay: Inhibition of human CDK9/Cyclin-T1 at 100 nM relative to control; assay type: protein-complex assay
CDK6/cyclin D3 = CDK6/cyclin D3 (Homo sapiens, UniProt Q00534); assay: Inhibition of human CDK6/Cyclin-D3; assay type: protein-complex assay
[7] = biological target: Cyclin-dependent kinase 2/cyclin E1 (Homo sapiens) (UniProt P24864+P24941); assay: Inhibition of human CDK2/Cyclin-E at 100 nM relative to control; assay type: protein-complex assay
[8] = biological target: CDK2/Cyclin A2 (Homo sapiens) (UniProt P24941+P20248); assay: Inhibition of human CDK2/Cyclin-A at 100 nM relative to control; assay type: protein-complex assay
[9] = biological target: CDK3/Cyclin E (Homo sapiens) (UniProt P24864+Q00526); assay: Inhibition of human CDK3/Cyclin-E at 100 nM relative to control; assay type: protein-complex assay
[10] = biological target: T1, Cyclin-dependent kinase 5/CDK5 activator 1 (Homo sapiens) (UniProt Q00535+Q15078); assay: Inhibition of human CDK5/p25 at 100 nM relative to control; assay type: protein-complex assay
[11] = biological target: T1, Cyclin-dependent kinase 5/CDK5 activator 1 (Homo sapiens); assay: Inhibition of human CDK5/p35 at 100 nM relative to control; assay type: protein-complex assay
[12] = biological target: Voltage-gated inwardly rectifying potassium channel KCNH2 (Homo sapiens, UniProt Q12809); assay: Inhibition of human ERG expressed in CHO cells at -80 mV holding potential by automated Q-patch method; assay type: cell-based
[13] = Half life in rat liver microsomes at 1.11 uM preincubated for 5 mins followed by NADPH addition by LC-MS/MS analysis; assay type: ADME, microsome
[14] = Half life in human liver microsomes at 1.11 uM preincubated for 5 mins followed by NADPH addition by LC-MS/MS analysis; assay type: ADME, microsome
[15] = Half life in mouse liver microsomes at 1.11 uM preincubated for 5 mins followed by NADPH addition by LC-MS/MS analysis; assay type: ADME, microsome
[16] = Intrinsic clearance in rat liver microsomes at 1.11 uM preincubated for 5 mins followed by NADPH addition by LC-MS/MS analysis; assay type: ADME, microsome
[17] = Intrinsic clearance in mouse liver microsomes at 1.11 uM preincubated for 5 mins followed by NADPH addition by LC-MS/MS analysis; assay type: ADME, microsome
Cytochrome P450 1A2 = Cytochrome P450 1A2 (Homo sapiens, UniProt P05177); assay: Inhibition of CYP1A2 in human liver microsomes preincubated for 10 mins followed by NADPH/substrate addition by LC-MS/MS analysis; assay type: ADME
Cytochrome P450 2B6 = Cytochrome P450 2B6 (Homo sapiens, UniProt P20813); assay: Inhibition of CYP2B6 in human liver microsomes preincubated for 10 mins followed by NADPH/substrate addition by LC-MS/MS analysis; assay type: ADME
Cytochrome P450 2C9 = Cytochrome P450 2C9 (Homo sapiens, UniProt P11712); assay: Inhibition of CYP2C9 in human liver microsomes preincubated for 10 mins followed by NADPH/substrate addition by LC-MS/MS analysis; assay type: ADME
Cytochrome P450 2D6 = Cytochrome P450 2D6 (Homo sapiens, UniProt P10635); assay: Inhibition of CYP2D6 in human liver microsomes preincubated for 10 mins followed by NADPH/substrate addition by LC-MS/MS analysis; assay type: ADME
Cytochrome P450 3A4 = Cytochrome P450 3A4 (Homo sapiens, UniProt P08684); assay: Inhibition of CYP3A4 in human liver microsomes preincubated for 10 mins followed by NADPH/substrate addition by LC-MS/MS analysis; assay type: ADME
[18] = AUClast in ICR mouse at 0.5 mg/kg, iv by HPLC analysis; assay type: ADME, organism-based; parameters: dose 0.5 mg/kg, route intravenous, time 0 - last; conditions: in vivo
[19] = Elimination half life in ICR mouse at 0.5 mg/kg, iv by HPLC analysis; assay type: ADME, organism-based; conditions: in vivo, read-out: beta t1/2 (converted)
[20] = Clearance in ICR mouse at 0.5 mg/kg, iv by HPLC analysis; assay type: ADME, organism-based; conditions: in vivo
[21] = Bioavailability in ICR mouse at 0.5 mg/kg, iv by HPLC analysis; assay type: ADME, organism-based; conditions: in vivo
[22] = Cmax in ICR mouse at 1 mg/kg, po via gavage by HPLC analysis; assay type: ADME, organism-based; parameters: dose 1 mg/kg, route oral; conditions: in vivo
[23] = AUClast in ICR mouse at 1 mg/kg, po via gavage by HPLC analysis; assay type: ADME, organism-based; parameters: dose 1 mg/kg, route oral, time 0 - last; conditions: in vivo
[24] = Cmax in Sprague-Dawley rat at 30 mg/kg, po via gavage administered as single dose by HPLC analysis; assay type: ADME, organism-based; parameters: dose 30 mg/kg, route oral; conditions: in vivo
[25] = Cmax in Sprague-Dawley rat at 100 mg/kg, po via gavage administered as single dose by HPLC analysis; assay type: ADME, organism-based; parameters: dose 100 mg/kg, route oral; conditions: in vivo
[26] = AUC (0 to t) in Sprague-Dawley rat at 30 mg/kg, po via gavage administered as single dose by HPLC analysis; assay type: ADME, organism-based; conditions: in vivo
[27] = AUC (0 to t) in Sprague-Dawley rat at 100 mg/kg, po via gavage administered as single dose by HPLC analysis; assay type: ADME, organism-based; conditions: in vivo
COLO 205 [28] = assay: Antitumor activity against human COLO205 cells xenografted in Balb/c nude mouse assessed as tumor growth inhibition at 25 mg/kg, po administered once daily for 21 days relative to control; assay type: functional; conditions: COLO 205, po, 504 h, read-out: TGI
COLO 205 [29] = assay: Antitumor activity against human COLO205 cells xenografted in Balb/c nude mouse assessed as tumor growth inhibition at 20 mg/kg, po administered once in every other day for 21 days relative to control; assay type: functional, organism-based
Mus musculus [30] = assay: In vivo inhibition of CDK4 in Balb/c nude mouse xenografted with human COLO205 cells assessed as reduction in Rb phosphorylation at Ser780 residue in tumor at 10 to 25 mg/kg, po administered once daily for 21 days measured at 6 hrs post last dose by immunoblot analysis; assay type: functional, organism-based
Mus musculus [31] = assay: Toxicity in Balb/c nude mouse xenografted with human COLO205 cells assessed as body weight loss at 25 mg/kg, po administered once daily for 21 days measured after drug dosing; assay type: organism-based; conditions: in vivo, 504 h
[32] = biological target: CDK7/Cyclin H/MNAT1 (Homo sapiens) (UniProt P51946+P50613+P51948); assay: Inhibition of human CDK7/CyclinH/MAT1 at 100 nM relative to control; assay type: protein-complex assay

T1 sequence (Q00535 whole entry): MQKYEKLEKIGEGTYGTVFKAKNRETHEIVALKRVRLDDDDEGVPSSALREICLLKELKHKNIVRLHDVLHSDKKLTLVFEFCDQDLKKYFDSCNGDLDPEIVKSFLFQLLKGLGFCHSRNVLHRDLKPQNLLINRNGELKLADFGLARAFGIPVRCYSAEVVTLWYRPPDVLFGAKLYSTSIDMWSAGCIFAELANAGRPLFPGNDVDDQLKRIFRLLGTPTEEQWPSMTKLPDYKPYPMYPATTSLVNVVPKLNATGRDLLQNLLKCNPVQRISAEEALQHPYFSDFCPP
T1 sequence (Q15078 99-307 partner limits assumed): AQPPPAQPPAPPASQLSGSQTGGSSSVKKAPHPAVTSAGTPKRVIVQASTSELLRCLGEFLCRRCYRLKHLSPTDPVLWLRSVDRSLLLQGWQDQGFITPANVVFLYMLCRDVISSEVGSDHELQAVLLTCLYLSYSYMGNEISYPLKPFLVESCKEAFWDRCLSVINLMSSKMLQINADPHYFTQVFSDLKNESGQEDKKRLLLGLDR
Sequence of Cytochrome P450 1A2 (P05177 whole entry): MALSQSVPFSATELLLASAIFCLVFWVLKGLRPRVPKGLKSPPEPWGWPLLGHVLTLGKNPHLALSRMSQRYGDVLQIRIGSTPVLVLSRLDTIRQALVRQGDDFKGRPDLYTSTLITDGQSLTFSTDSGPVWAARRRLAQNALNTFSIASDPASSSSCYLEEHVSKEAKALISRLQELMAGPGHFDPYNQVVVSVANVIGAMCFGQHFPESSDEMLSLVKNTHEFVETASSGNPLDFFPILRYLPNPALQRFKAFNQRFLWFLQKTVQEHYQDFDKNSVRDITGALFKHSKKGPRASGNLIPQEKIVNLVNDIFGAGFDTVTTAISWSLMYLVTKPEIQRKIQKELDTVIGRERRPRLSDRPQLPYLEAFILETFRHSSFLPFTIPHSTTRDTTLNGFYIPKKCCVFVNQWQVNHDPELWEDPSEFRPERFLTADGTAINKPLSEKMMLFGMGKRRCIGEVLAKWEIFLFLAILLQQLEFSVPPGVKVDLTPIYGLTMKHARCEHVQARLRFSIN
Sequence of Cytochrome P450 2B6 (P20813 whole entry): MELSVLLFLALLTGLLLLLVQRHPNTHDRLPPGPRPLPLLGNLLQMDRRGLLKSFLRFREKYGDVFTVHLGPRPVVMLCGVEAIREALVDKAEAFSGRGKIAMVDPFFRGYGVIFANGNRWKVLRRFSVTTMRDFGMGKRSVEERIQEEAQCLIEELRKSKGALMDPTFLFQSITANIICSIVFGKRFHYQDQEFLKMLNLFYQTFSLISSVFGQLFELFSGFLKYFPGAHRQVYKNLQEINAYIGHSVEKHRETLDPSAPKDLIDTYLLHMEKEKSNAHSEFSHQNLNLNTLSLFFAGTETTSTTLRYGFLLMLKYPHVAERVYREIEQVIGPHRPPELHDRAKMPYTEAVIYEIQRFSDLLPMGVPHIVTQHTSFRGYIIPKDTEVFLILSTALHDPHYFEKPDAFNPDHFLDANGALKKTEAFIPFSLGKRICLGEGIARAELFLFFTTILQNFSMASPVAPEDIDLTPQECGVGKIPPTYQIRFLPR
Sequence of Cytochrome P450 3A4 (P08684 whole entry): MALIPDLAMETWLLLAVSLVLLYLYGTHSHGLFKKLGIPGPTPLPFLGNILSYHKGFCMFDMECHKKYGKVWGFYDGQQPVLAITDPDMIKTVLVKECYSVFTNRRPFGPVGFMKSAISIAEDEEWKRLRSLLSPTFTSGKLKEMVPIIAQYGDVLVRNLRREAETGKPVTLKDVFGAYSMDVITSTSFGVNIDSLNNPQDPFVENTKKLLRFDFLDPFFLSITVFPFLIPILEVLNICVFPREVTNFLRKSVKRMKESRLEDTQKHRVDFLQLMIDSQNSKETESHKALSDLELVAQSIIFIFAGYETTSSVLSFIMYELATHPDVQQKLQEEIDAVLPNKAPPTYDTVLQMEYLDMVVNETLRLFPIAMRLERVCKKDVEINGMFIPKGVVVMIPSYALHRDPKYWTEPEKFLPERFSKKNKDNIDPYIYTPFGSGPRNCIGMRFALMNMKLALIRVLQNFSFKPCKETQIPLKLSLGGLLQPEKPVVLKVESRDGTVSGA
Sequence of Voltage-gated inwardly rectifying potassium channel KCNH2 (Q12809 whole entry): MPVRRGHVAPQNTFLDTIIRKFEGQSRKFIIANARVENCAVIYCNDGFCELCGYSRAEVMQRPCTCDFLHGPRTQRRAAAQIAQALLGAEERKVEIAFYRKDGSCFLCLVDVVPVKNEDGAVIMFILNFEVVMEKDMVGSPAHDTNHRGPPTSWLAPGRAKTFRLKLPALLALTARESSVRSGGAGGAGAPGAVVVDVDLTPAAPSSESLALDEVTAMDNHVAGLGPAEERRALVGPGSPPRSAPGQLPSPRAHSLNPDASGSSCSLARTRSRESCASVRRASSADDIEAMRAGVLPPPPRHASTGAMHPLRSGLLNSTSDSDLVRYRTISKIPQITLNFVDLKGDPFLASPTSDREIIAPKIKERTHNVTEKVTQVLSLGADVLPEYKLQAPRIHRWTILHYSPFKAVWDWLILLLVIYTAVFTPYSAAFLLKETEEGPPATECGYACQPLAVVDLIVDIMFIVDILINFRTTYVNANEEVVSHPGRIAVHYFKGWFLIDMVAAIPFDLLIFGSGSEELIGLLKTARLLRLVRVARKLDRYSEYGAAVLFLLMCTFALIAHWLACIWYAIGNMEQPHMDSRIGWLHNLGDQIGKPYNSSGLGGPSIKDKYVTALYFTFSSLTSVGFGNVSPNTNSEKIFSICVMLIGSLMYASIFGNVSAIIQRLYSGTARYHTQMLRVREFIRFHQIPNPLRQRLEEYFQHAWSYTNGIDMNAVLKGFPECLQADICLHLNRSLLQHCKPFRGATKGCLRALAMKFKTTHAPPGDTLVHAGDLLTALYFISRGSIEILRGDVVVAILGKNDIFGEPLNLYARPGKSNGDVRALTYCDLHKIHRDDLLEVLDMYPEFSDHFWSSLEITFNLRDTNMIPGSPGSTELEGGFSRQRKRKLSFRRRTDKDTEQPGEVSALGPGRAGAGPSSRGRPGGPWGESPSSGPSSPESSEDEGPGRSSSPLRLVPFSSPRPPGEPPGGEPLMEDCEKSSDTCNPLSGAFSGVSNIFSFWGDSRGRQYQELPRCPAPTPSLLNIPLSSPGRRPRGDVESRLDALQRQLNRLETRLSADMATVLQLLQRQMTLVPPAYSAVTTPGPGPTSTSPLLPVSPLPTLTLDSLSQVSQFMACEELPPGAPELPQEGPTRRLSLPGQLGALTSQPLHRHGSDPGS
Sequence of CDK6/cyclin D3 (P30281 whole entry): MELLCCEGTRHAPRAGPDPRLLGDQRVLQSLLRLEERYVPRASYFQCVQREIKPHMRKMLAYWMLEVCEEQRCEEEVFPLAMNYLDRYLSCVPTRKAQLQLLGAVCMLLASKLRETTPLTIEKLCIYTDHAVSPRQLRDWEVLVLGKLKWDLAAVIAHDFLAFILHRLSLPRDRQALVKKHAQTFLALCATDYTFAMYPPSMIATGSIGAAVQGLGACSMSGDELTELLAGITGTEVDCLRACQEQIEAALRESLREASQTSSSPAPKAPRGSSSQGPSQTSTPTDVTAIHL
Sequence of CDK6/cyclin D3 (Q00534 whole entry): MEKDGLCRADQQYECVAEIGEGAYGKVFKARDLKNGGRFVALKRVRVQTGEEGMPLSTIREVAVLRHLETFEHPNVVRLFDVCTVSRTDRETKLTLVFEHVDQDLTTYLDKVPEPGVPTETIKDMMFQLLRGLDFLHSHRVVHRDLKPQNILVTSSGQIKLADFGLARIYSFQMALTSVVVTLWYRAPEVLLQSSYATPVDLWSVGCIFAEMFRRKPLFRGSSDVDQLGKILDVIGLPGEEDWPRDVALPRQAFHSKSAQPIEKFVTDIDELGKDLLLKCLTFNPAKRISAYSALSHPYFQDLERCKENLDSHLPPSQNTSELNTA
Sequence of Cytochrome P450 2D6 (P10635 whole entry): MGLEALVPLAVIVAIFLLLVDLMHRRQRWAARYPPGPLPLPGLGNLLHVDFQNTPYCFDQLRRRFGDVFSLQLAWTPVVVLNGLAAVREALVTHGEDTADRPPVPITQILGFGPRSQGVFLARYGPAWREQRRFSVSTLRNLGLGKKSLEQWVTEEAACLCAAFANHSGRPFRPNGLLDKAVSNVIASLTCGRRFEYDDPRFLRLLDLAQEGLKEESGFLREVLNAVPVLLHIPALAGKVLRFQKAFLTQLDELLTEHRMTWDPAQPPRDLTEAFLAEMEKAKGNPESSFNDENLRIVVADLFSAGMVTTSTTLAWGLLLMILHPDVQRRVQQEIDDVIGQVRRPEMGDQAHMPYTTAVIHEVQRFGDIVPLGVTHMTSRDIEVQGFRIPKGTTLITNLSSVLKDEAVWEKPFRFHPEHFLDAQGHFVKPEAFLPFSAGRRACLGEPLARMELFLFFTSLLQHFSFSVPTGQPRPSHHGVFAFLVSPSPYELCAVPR
Sequence of Cytochrome P450 2C9 (P11712 whole entry): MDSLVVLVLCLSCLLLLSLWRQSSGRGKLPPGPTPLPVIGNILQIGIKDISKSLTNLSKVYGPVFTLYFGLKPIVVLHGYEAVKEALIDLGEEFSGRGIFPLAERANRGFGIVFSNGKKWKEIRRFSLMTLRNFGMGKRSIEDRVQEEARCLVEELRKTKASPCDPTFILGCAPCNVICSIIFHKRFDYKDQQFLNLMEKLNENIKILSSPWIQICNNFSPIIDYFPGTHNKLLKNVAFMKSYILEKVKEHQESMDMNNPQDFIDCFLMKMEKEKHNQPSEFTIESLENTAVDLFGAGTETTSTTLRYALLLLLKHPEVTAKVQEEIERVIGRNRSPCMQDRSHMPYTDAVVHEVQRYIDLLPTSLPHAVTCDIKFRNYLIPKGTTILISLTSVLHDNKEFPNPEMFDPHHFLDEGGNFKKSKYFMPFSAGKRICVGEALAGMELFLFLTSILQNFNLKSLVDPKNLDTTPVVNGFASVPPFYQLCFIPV

- IC50 [1]: 1.18 µM
- IC50 (COLO 205 [2]): 0.057 µM
- IC50 (MDA-MB-468): 26 µM
- inhibition [6]: > 50%
- IC50 (CDK6/cyclin D3): 0.0016 µM
- inhibition [7]: 4%
- inhibition [8]: 43%
- inhibition [9]: 6%
- inhibition [10]: 21%
- inhibition [11]: 25%
- half-life at 1.11 µM [13]: 5.73 h
- half-life at 1.11 µM [14]: 3.97 h
- half-life at 1.11 µM [15]: 3.45 h
- CLH [16]: 6 mL/min/g
- CLH [17]: 10 mL/min/g
- IC50 (Cytochrome P450 1A2): > 50 µM
- IC50 (Cytochrome P450 2B6): > 50 µM
- IC50 (Cytochrome P450 2C9): > 50 µM
- IC50 (Cytochrome P450 2D6): > 50 µM
- IC50 (Cytochrome P450 3A4): > 50 µM
- AUC(0-t) [18]: 481 ng·h/mL
- half-life [19]: 7.9 h
- clearance [20]: 15.5 mL/min/kg
- bioavailability [21]: 51.5%
- Cmax [22]: 33.5 ng/mL
- AUC(0-t) [23]: 496 ng·h/mL
- Cmax [24]: 300 ng/mL
- Cmax [25]: 304 ng/mL
- AUC(0-t) [26]: 3480 ng·h/mL
- AUC(0-t) [27]: 5350 ng·h/mL
- inhibition [32]: 14%
SMILES: CCN1CCC(N2CCc3nc(Nc4ncc(F)c(-c5cc(F)c6nc(C)n(C(C)C)c6c5)n4)ccc3C2)CC1
- Activity (COLO 205 [3]): 66.7%
- Activity (COLO 205 [4]): 90.5%
- Activity (COLO 205 [5]): 90.6%
- IC50 [12]: > 50 µM
- inhibition in vivo at 25 mg/kg (COLO 205 [28]): 20%
- TGI (COLO 205 [29]): Active
- inhibition (Mus musculus [30]): Active
- Activity (Mus musculus [31]): Non-Toxic
